Where two headings read alike, the source gives them in different places.
Legend:
[1] = tested on: E. multilocularis metacestodes; assay: PGI-assay: drug-induced damage on in vitro cultured metacestodes (Pathogen Box screening cascade and EC50); assay type: cell-based, Echinococcus multilocularis; conditions: for activity in the screen at 10 μM (confirmed in triplicates, >20% relative PGI release): 5 and 12 days; for cytotoxicity at 10 µM / PGI release, % of Tx-100 control at 10 µM: Echinococcus multilocularis; for cytotoxicity at 10 µM / PGI release, % of the Tx-100 control, 5d / PGI release, % of the Tx-100 control, 12d: singlets, 10 µM; for activity in the screen at 10 μM (confirmed in triplicates, >20% relative PGI release) / activity in the present in vitro screen (threshold 20% relative activity compared to Tx-100): 10 μM
[2] = tested on: E. multilocularis metacestodes; conditions: cited from earlier work; for effect in vitro against E. multilocularis metacestodes: ref Reuter et al.
[3] = 1 µM, triplicates, 5 days of incubation
[4] = 1 µM, triplicates, 12 days of incubation
[5] = 120 h, 5 days of incubation, read-out: PGI release, % of the Tx-100 control, 5d
[6] = 120 h, confirmatory screening at 10 µM in triplicates, 5 days of incubation, values as % of Tx-100 control, read-out: PGI release, % of Tx-100 control, average, 5d
[7] = 288 h, 12 days of incubation, read-out: PGI release, % of the Tx-100 control, 12d
[8] = 288 h, confirmatory screening at 10 µM in triplicates, 12 days of incubation, values as % of Tx-100 control, read-out: PGI release, % of Tx-100 control, average, 12d
[9] = confirmatory screening at 10 µM in triplicates, 5 days of incubation, values as % of Tx-100 control
[10] = confirmatory screening at 10 µM in triplicates, 12 days of incubation, values as % of Tx-100 control

## OC(c1cc(C(F)(F)F)nc2c(C(F)(F)F)cccc12)C1CCCCN1 (stereo not shown) [MMV000016, Mefloquine, reference compound]
[1]; [3]
  PGI release, % of Tx-100 control, average, 5d: 0.24%
[1]; [4]
  PGI release, % of Tx-100 control, average, 12d: 8.91%
[1]
  activity in the screen at 10 μM (confirmed in triplicates, >20% relative PGI release): active
[1]; listed as Mefloquine
  activity in the screen at 10 μM (confirmed in triplicates, >20% relative PGI release): identified in our screening
[1]; [5]
  cytotoxicity at 10 µM: 16.9%
[1]; [6]
  PGI release, % of Tx-100 control at 10 µM: 7.4%
[1]; [7]
  cytotoxicity at 10 µM: 23.3%
[1]; [8]
  PGI release, % of Tx-100 control at 10 µM: 47.4%
[2]; ref Stadelmann et al., 2011, Küster et al., 2011, 2015, Rufener et al., 2018, read-out: IC50 value against this parasite in vitro
  IC50: > 30 µM

## COC(=O)Nc1nc2ccc(C(=O)c3ccccc3)cc2[nH]1 [MMV003152, Mebendazole, reference compound]
[1]; [5]
  cytotoxicity at 10 µM: 1.28%
[1]; [7]
  cytotoxicity at 10 µM: 11.9%
[2]; three weeks treatment, ref Jura et al., 1998
  concentration inhibiting parasite proliferation: 1 µM

## CO[C@H]1/C=C/O[C@@]2(C)Oc3c(C)c(O)c4c(O)c(c(/C=N/N5CCN(C)CC5)c(O)c4c3C2=O)NC(=O)/C(C)=C\C=C\[C@H](C)[C@H](O)[C@@H](C)[C@@H](O)[C@@H](C)[C@H](OC(C)=O)[C@@H]1C [MMV688775, Rifampicin, reference compound]
[1]
  activity in the present in vitro screen (threshold 20% relative activity compared to Tx-100): inactive
[1]; [5]
  cytotoxicity at 10 µM: -0.7%
[1]; [7]
  cytotoxicity at 10 µM: -1.35%
[2]; 2006
  effect in vitro against E. multilocularis metacestodes: ineffective

## CCCCCCCCCCCCCCCCOP(=O)([O-])OCC[N+](C)(C)C [MMV688990, Miltefosine, reference compound]
[1]
  activity in the present in vitro screen (threshold 20% relative activity compared to Tx-100): inactive
[1]; [5]
  cytotoxicity at 10 µM: -1.11%
[1]; [7]
  cytotoxicity at 10 µM: -5.17%
[2]; 2006
  effect in vitro against E. multilocularis metacestodes: ineffective

## CC(=O)Oc1ccccc1C(=O)Nc1ncc([N+](=O)[O-])s1 [MMV688991, Nitazoxanide, reference compound]
[1]; 1 μM, triplicates
  activity against metacestodes at 1 μM: did not maintain its activity
[1]; [3]
  PGI release, % of Tx-100 control, average, 5d: 1.35%
[1]; [4]
  PGI release, % of Tx-100 control, average, 12d: 11.08%
[1]
  activity in the screen at 10 μM (confirmed in triplicates, >20% relative PGI release): active
[1]; [5]
  cytotoxicity at 10 µM: 57.7%
[1]; [6]
  PGI release, % of Tx-100 control at 10 µM: 54.7%
[1]; [7]
  cytotoxicity at 10 µM: 75.5%
[1]; [8]
  PGI release, % of Tx-100 control at 10 µM: 71.7%
[2]; ref Stettler et al., 2003, Reuter et al., 2006
  concentration shown to be active in vitro against metacestodes: 3.3 µM

## C[C@@H]1[C@H](O)[C@@H](C)/C=C/C=C/C=C/C=C/C=C/C=C/C=C/[C@H](O[C@@H]2O[C@H](C)[C@@H](O)[C@H](N)[C@@H]2O)C[C@@H]2O[C@](O)(C[C@@H](O)C[C@@H](O)[C@H](O)CC[C@@H](O)C[C@@H](O)CC(=O)O[C@H]1C)C[C@H](O)[C@H]2C(=O)O [MMV689000, Amphotericin B, reference compound]
[1]; [5]
  cytotoxicity at 10 µM: 34.2%
[1]; [6]
  PGI release, % of Tx-100 control at 10 µM: -1.34%
[1]; [7]
  cytotoxicity at 10 µM: 51.2%
[1]; [8]
  PGI release, % of Tx-100 control at 10 µM: 2.75%
[2]; ref Reuter et al., 2003, 2010
  concentration shown to destroy metacestodes in vitro: 2.7 µM

## COc1ccc(S(=O)(=O)Nc2ccc(CN3CCN(C(=O)c4cccc(C#N)c4)CC3)cc2)cc1 [MMV689029]
[1]; 5 days of incubation
  PGI release, % of the Tx-100 control, 5d: 2.51%
[1]; 12 days of incubation
  PGI release, % of the Tx-100 control, 12d: -2.23%

## Clc1ccc(CN2CCN(C3=NCCN3)CC2)cc1Cl [MMV689060]
[1]; 5 days of incubation
  PGI release, % of the Tx-100 control, 5d: 0.33%
[1]; 12 days of incubation
  PGI release, % of the Tx-100 control, 12d: -1.23%

## CC(=O)Nc1ccc(-c2noc(CC3CCCN(Cc4cccc(F)c4C)C3)n2)cc1 (stereo not shown) [MMV689061]
[1]; 5 days of incubation
  PGI release, % of the Tx-100 control, 5d: 2.22%
[1]; 12 days of incubation
  PGI release, % of the Tx-100 control, 12d: 1.98%

## FC(F)(F)c1ccc(N(c2cccnc2)C2CCN(c3ccc(C(F)(F)F)cn3)CC2)cc1 [MMV689243]
[1]; 5 days of incubation
  PGI release, % of the Tx-100 control, 5d: 0.34%
[1]; 12 days of incubation
  PGI release, % of the Tx-100 control, 12d: 10.04%

## O=C([C@@H](c1ccc(Cl)cc1)c1cccnc1)N1CCN(c2ccc(C(F)(F)F)cc2)CC1 [MMV689244]
[1]; 5 days of incubation
  PGI release, % of the Tx-100 control, 5d: -0.13%
[1]; 12 days of incubation
  PGI release, % of the Tx-100 control, 12d: -0.53%

## Nc1ncnc2c1ncn2C[C@@H](O)[C@@H](O)C(=O)O [MMV689255, Eritadenine]
[1]; [5]
  cytotoxicity at 10 µM: 0.0047%
[1]; [7]
  cytotoxicity at 10 µM: 0.51%

## CC(c1cc(Cl)cc(Cl)c1)N(C)c1ncc2c(N)nc(N)nc2n1 (stereo not shown) [MMV689437]
[1]; 5 days of incubation
  PGI release, % of the Tx-100 control, 5d: 4.64%
[1]; 12 days of incubation
  PGI release, % of the Tx-100 control, 12d: 4.83%

## CNc1cc(C)nc(C2CN(C(=O)c3n[nH]c4ccccc34)CCO2)c1 (stereo not shown) [MMV689709]
[1]; 5 days of incubation
  PGI release, % of the Tx-100 control, 5d: -5.26%
[1]; 12 days of incubation
  PGI release, % of the Tx-100 control, 12d: 58.81%
[1]; [9]
  PGI release, % of Tx-100 control, average, 5d: -0.32%
[1]; [10]
  PGI release, % of Tx-100 control, average, 12d: -0.96%

## COc1nc2ccc(Br)cc2cc1[C@@H](c1ccccc1)[C@@](O)(CCN(C)C)c1cccc2ccccc12 [MMV689758, Bedaquiline, reference compound]
[1]; [5]
  cytotoxicity at 10 µM: 2.07%
[1]; [7]
  cytotoxicity at 10 µM: -3.22%

## COc1ccc(C2=NN(C3CCCCCC3)C(=O)[C@@H]3CC=CC[C@H]23)cc1OCCCCOc1ccc(-c2nn[nH]n2)cc1 [MMV690027]
[1]; 5 days of incubation
  PGI release, % of the Tx-100 control, 5d: 9.58%
[1]; 12 days of incubation
  PGI release, % of the Tx-100 control, 12d: 27.83%
[1]; [9]
  PGI release, % of Tx-100 control, average, 5d: 0.20%
[1]; [10]
  PGI release, % of Tx-100 control, average, 12d: 0.24%

## COc1ccc(C2=NN(C3CCCCCC3)C(=O)C2(C)C)cc1OCCCCOc1ccc(-c2nn[nH]n2)cc1 [MMV690028]
[1]; 5 days of incubation
  PGI release, % of the Tx-100 control, 5d: 2.30%
[1]; 12 days of incubation
  PGI release, % of the Tx-100 control, 12d: 6.47%

## COc1ccc(Oc2ccc([C@@H](C)N(C)c3ncc4c(N)nc(N)nc4n3)cc2)cc1 [MMV690102]
[1]; [3]
  PGI release, % of Tx-100 control, average, 5d: -0.29%
[1]; [4]
  PGI release, % of Tx-100 control, average, 12d: 5.50%
[1]
  activity in the screen at 10 μM (confirmed in triplicates, >20% relative PGI release): active
[1]; 5 days of incubation
  PGI release, % of the Tx-100 control, 5d: 73.64%
[1]; 12 days of incubation
  PGI release, % of the Tx-100 control, 12d: 91.71%
[1]; [9]
  PGI release, % of Tx-100 control, average, 5d: 25.36%
[1]; [10]
  PGI release, % of Tx-100 control, average, 12d: 31.53%

## C[C@H](c1ccc2c(c1)CCCC2)N(C)c1ncc2c(N)nc(N)nc2n1 [MMV690103]
[1]; 5 days of incubation
  PGI release, % of the Tx-100 control, 5d: -3.58%
[1]; 12 days of incubation
  PGI release, % of the Tx-100 control, 12d: 41.60%
[1]; [9]
  PGI release, % of Tx-100 control, average, 5d: -0.48%
[1]; [10]
  PGI release, % of Tx-100 control, average, 12d: 4.22%

## CCc1ccc(C(NCc2nc(N)nc(N(C)C)n2)C(C)C)cc1 (stereo not shown) [MMV1019989]
[1]; 5 days of incubation
  PGI release, % of the Tx-100 control, 5d: 0.39%
[1]; 12 days of incubation
  PGI release, % of the Tx-100 control, 12d: -3.04%

## O=C(Nc1nc(-c2ccccn2)cs1)C1CC1c1ccccc1F (stereo not shown) [MMV1028806]
[1]; 5 days of incubation
  PGI release, % of the Tx-100 control, 5d: -2.32%
[1]; 12 days of incubation
  PGI release, % of the Tx-100 control, 12d: -0.32%

## CNC(=O)CNc1nc(-c2ccccn2)nc2scc(-c3ccccc3)c12 [MMV1029203]
[1]; 5 days of incubation
  PGI release, % of the Tx-100 control, 5d: -5.65%
[1]; 12 days of incubation
  PGI release, % of the Tx-100 control, 12d: 6.41%

## CCCn1c(NC(=O)c2ccc3ccccc3n2)nc2ccccc21 [MMV1030799]
[1]; 5 days of incubation
  PGI release, % of the Tx-100 control, 5d: 3.64%
[1]; 12 days of incubation
  PGI release, % of the Tx-100 control, 12d: 13.68%

## CCNC(=O)C(C)Nc1nc(-c2cccnc2)nc2sc(C)c(C)c12 (stereo not shown) [MMV1037162]
[1]; 5 days of incubation
  PGI release, % of the Tx-100 control, 5d: 0.19%
[1]; 12 days of incubation
  PGI release, % of the Tx-100 control, 12d: -2.69%

## Cc1ccc(-c2nc(CN(Cc3ccccn3)C(C)C)cs2)o1 [MMV1088520]
[1]; 5 days of incubation
  PGI release, % of the Tx-100 control, 5d: -5.44%
[1]; 12 days of incubation
  PGI release, % of the Tx-100 control, 12d: -2.75%

## COc1cccn2c(C(=O)N3CCCCC3)c(C(F)(F)F)nc12 [MMV1110498]
[1]; 5 days of incubation
  PGI release, % of the Tx-100 control, 5d: -3.14%
[1]; 12 days of incubation
  PGI release, % of the Tx-100 control, 12d: 0.63%

## Cc1cc(OCC(=O)Nc2ccc(C(C)C)cc2)n(C)c(=O)c1C#N [MMV1198433]
[1]; 5 days of incubation
  PGI release, % of the Tx-100 control, 5d: 2.43%
[1]; 12 days of incubation
  PGI release, % of the Tx-100 control, 12d: -0.19%

## CCOC(=O)c1noc(N)c1-c1ccccc1 [MMV1236379]
[1]; 5 days of incubation
  PGI release, % of the Tx-100 control, 5d: 3.51%
[1]; 12 days of incubation
  PGI release, % of the Tx-100 control, 12d: 4.87%

## Levofloxacin (-)-ofloxacin [MMV687798, reference compound]
[1]; 5 days of incubation
  PGI release, % of the Tx-100 control, 5d: -0.0541%
[1]; 12 days of incubation
  PGI release, % of the Tx-100 control, 12d: -0.33%
